Measured values: patent publication US20170246144A1, “METHOD OF PREVENTING OR TREATING SPINOCEREBELLAR ATAXIA BY ADMINISTRATING SILIBININ” (National Taiwan Normal University, priority 2016, published 2017)

Columns and labels:
SH-SY5Y cells = assay: Annexin V-FITC/PI flow cytometry, apoptosis induced by MSG; format: cell-based, Human; conditions: 15 μM, 100 mM MSG, 24 hours
Experimental: 1×10^6 SH-SY5Y cells were treated with 100 mM MSG and 15 μM SB or 10 μM MK801 (MK) for 24 hours. Cells were stained with Annexin-V/PI and the apoptosis was measured with a flow cytometry.
In order to detect the effects of silibinin in inhibiting the apoptosis induced by glutamate in SH-SY5Y cells. The cells were measured by flow cytometry using Annexin V-FITC/propidium iodide (PI) double-labeling method.
SH-SY5Y cells were seeded in dish and were treated with 100 mM MSG in combination of 15 μM silibinin or 10 μM MK801 for 24 hours. The cells were then trypsinized and collected by centrifugation at 2,000 rpm for […] followed by double-staining with Annexin V-FITC and PI. Stained cells were analyzed with a flow cytometry (FACS Sorter, Becton, Dickinson and Company). 10,000 cells were recorded in each experiment.

SCA17 transgenic mice [1] = assay: Rotarod test in SCA17 transgenic mice; format: in vivo; conditions: 4.5 mg/kg i.p. once every 2 days from 8 weeks old
Experimental: (§1) FIGS. 10A-10F show the effects of SB on the body weight and motor performance in SCA17 transgenic mice. Mice were grouped into wild type-saline (WT-saline), transgenic-saline (TG-saline), and transgenic-SB treatment (TG-SB) groups. Mice were injected intraperitoneally with saline or SB (4.5 mg/kg) at 8-week old once every 2 days. […] FIG. 10E and FIG. 10F show respectively the stride length of front-limb/hind-limb at the right-side and the left-side. The values represent means±SD, n=6. *p<0.05, comparing to the TG-saline group.
(§2) Since the SCA17 mice were 8 weeks old, the mice were injected intraperitoneally with silibinin in saline at 4.5 mg/kg once every 2 days, designated as TG_SB group. The mice in TG_saline group were injected with same amount of saline.
At the 10th week, the rotarod test was performed to measure the motor coordination of the mice. The mice were trained prior to drug treatment. The mouse was placed on the rotarod with acceleration from 2 to 20 rpm for 5 minutes maintaining at 20 rpm for 5 more minutes to establish the baseline of the behavior of the mouse.
The condition was maintained at a linear acceleration from 4 to 30 rpm within 5 minutes during the testing period. The rotarod test was performed once every 2 weeks, since the mouse was 10 weeks old till 20 weeks old. […] The latency of fall was recorded. […]

SCA17 transgenic mice [2] = assay: Footprint pattern analysis in SCA17 transgenic mice; format: in vivo; conditions: 4.5 mg/kg i.p. once every 2 days
Experimental: as §1, §2
In addition, footprint pattern analysis was conducted to observe any abnormity of the gait of the mice. Such test was conducted widely to determine motor skill, coordination and balance. The hindfeet and forefeet of the mouse were coated with red and blue nontoxic paint respectively, and the mouse was allowed to walk along a runway on a fresh sheet of white paper. The distance between the centers of the hind footprint and the fore footprint, the length of the step, and the parallel distance were measured for a continuous 6 steps, excluding the steps in the beginning and at the end. The test was performed once every half month.

COc1cc(C2Oc3cc([C@H]4Oc5cc(O)cc(O)c5C(=O)[C@@H]4O)ccc3OC2CO)ccc1O (stereo partly shown) [silibinin]
apoptosis (apoptotic cells) (SH-SY5Y cells): 9.04%
average time of the latency of fall, rotarod (SCA17 transgenic mice [1]): 393 ± 36 s
overlapped length of footprints, left-paw (SCA17 transgenic mice [2]): 0.8±0.1 cm
overlapped length of footprints, right-paw (SCA17 transgenic mice [2]): 1.1±0.1 cm
